{
  "source": "patent US9625446B2",
  "about": "“Method and quantification assay for determining c-kit/SCF/pAKT status” (Ventana Medical Systems, Inc., priority 2001, dated 2017)",
  "molecular_target": "c-kit receptor (Homo sapiens, UniProt P10721)",
  "sequence (P10721 26-976)": "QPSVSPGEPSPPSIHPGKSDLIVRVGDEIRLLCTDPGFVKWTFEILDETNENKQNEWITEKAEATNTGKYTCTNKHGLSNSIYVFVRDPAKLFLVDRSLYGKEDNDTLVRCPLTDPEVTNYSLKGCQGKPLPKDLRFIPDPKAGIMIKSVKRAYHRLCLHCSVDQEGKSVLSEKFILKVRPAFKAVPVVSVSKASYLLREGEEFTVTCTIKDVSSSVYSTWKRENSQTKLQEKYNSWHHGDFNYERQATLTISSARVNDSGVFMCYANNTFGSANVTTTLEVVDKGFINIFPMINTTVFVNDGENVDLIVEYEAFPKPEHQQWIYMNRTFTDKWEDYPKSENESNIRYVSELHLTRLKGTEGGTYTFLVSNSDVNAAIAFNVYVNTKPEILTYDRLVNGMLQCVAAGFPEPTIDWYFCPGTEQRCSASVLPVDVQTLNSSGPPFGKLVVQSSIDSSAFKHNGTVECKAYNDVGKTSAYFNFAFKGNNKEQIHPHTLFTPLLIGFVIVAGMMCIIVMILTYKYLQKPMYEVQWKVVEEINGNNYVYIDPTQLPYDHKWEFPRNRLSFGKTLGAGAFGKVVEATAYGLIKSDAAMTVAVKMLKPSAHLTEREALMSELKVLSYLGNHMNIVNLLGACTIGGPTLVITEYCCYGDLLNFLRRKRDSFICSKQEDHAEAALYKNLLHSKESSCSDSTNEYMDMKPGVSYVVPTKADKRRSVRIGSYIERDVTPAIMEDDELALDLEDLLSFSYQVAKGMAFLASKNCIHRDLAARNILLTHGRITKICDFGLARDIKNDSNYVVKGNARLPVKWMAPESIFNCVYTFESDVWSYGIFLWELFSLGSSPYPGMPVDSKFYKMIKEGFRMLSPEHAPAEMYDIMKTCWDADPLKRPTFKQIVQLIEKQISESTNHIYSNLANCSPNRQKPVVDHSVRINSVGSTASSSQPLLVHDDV",
  "conditions": "MDA-MB-361 cells, SCF ligand present, three-day culture, STI-571 1 μM to 40 μM, 50 μg total protein lysate, FIG. 4",
  "data": [
    {"compound": "Cc1ccc(NC(=O)c2ccc(CN3CCN(C)CC3)cc2)cc1Nc1nccc(-c2cccnc2)n1", "note": "[STI-571]", "values": [
      {"measurement": "STI-571 concentration at which SCF-induced c-kit activation is inhibited (no 145 kDa activated c-kit band)", "value": "≤ 1", "unit": "µM"}
    ]}
  ]
}
